Experimental data: the CombiSolv-Exp solvation set (Vermeire and Green 2021)

Test: solvent given as SMILES

c1ccc2c(c1)Nc1ccccc1S2
Conditions | solvation free energy, 298 K [kcal/mol]
in C1CCOC1 | -14.7
in C1COCCO1 | -14.4
in CC(C)(C)O | -12.7
in CC(C)CC(C)(C)C | -10.9
in CC(C)CC(C)O | -12.6
in CC(C)CCO | -12.8
in CC(C)CO | -12.6
in CC(C)O | -12.8
in CC(C)OC(C)C | -12.8
in CCC(C)CO | -12.7
in CCC(C)O | -12.8
in CCCC(C)CO | -12.8
in CCCC(C)O | -12.8
in CCCCC(CC)CO | -12.7
in CCCCCC | -11.1
in CCCCCCC | -11.2
in CCCCCCCC | -11.2
in CCCCCCCCCC | -11.2
in CCCCCCCCCCO | -13
in CCCCCCCCO | -13.1
in CCCCCCCO | -13.1
in CCCCCCO | -13.1
in CCCCCO | -13.1
in CCCCO | -13.1
in CCCCOCCCC | -12.7
in CCCO | -13.1
in CCCOC(C)=O | -13.9
in CCO | -13.2
in CCOCC | -13.5
in CO | -13.1
in COC(C)(C)C | -13.4

CCCCOC(C)=O
Conditions | solvation free energy, 298 K [kcal/mol]
in CC(=O)N(C)C | -5.24
in CC(C)CCCC(C)CCCC(C)CCCCC(C)CCCC(C)CCCC(C)C | -4.52
in CCCCC(CC)COC(=O)CCCCC(=O)OCC(CC)CCCC | -4.89
in CCCCCC | -4.94
in CCCCCCC | -4.92
in CCCCCCCC | -4.9
in CCCCCCCCC=CCCCCCCCC(=O)OCC(COC(=O)CCCCCCCC=CCCCCCCCC)OC(=O)CCCCCCCC=CCCCCCCCC | -5.07
in CCCCCCCCCC | -4.75
in CCCCCCCCCCCCCCCC | -4.52
in CCCCCCCCO | -5.01
in CCCCN(C=O)CCCC | -5.24
in CNC(C)=O | -5.14
in CO | -5.36
in NC=O | -4.07
in O | -2.65
in [2H]O[2H] | -2.76

O=Nc1ccc2ccccc2c1O
Conditions | solvation free energy, 298 K [kcal/mol]
in O | -8.79

O=C(O)c1ccc(CCl)cc1
Conditions | solvation free energy, 298 K [kcal/mol]
in C=CCCCCCCCCCCCCCC | -8.7
in O | -9.22

CCCCCCCCCCCCCCCCCCCCCCCCCC
Conditions | solvation free energy, 298 K [kcal/mol]
in CC(=O)N(C)C | -17.6
in CC(C)(C)O | -15.8
in CN(C)C=O | -17.8
in O | 5.59

CCCO
Conditions | solvation free energy, 298 K [kcal/mol]
in Brc1ccccc1 | -3.66
in C1CCOC1 | -5.22
in C1COCCO1 | -4.52
in C=CCCCCCCCCCCCCCC | -2.96
in CC#N | -4.84
in CC(C)(C)O | -5.55
in CC(C)CC(C)(C)C | -3
in CC(C)CCCC(C)CCCC(C)CCCCC(C)CCCC(C)CCCC(C)C | -2.6
in CC(C)CO | -5.44
in CC(C)O | -5.53
in CC(C)OC(C)C | -4.39
in CCC1CO1 | -5.09
in CCC(C)=O | -4.97
in CCCC(C)O | -5.34
in CCCCC(CC)COC(=O)CCCCC(=O)OCC(CC)CCCC | -4.07
in CCCCCC | -2.99
in CCCCCCC | -2.97
in CCCCCCCC | -2.91
in CCCCCCCCC=CCCCCCCCC(=O)OCC(COC(=O)CCCCCCCC=CCCCCCCCC)OC(=O)CCCCCCCC=CCCCCCCCC | -3.96
in CCCCCCCCCC | -2.76
in CCCCCCCCCCCCCCCC | -2.7
in CCCCCCCCCCO | -4.8
in CCCCCCCCO | -5.02
in CCCCCO | -5.43
in CCCCO | -5.22
in CCCCOC(C)=O | -4.65
in CCCOCCC | -4.2
in CCO | -5.69
in CCOC(=O)c1ccccc1C(=O)OCC | -4.09
in CCOCCO | -5.33
in CCOP(=O)(OCC)OCC | -5.39
in CN1CCCC1=O | -5.69
in CN1CCN(C)C1=O | -5.51
in CN(C)C=O | -5.57
in CO | -5.92
in COC(C)(C)C | -4.6
in COC(C)=O | -4.88
in Cc1ccc(C)cc1 | -3.73
in Cc1cccc(C)c1 | -3.72
in ClC(Cl)(Cl)Cl | -3.53
in Clc1ccccc1 | -3.83
in FC(F)(F)C(F)(F)C(F)(F)C(F)(F)C(F)(F)C(F)(F)C(F)(F)F | -1.69
in FC(F)(F)C(F)(F)C(F)(F)C(F)(F)C(F)(F)C(F)(F)F | -1.74
in NC=O | -4.84
in O | -4.88
in O=CN1CCOCC1 | -5.02
in OCC(O)CO | -4.37
in OCCOCCO | -5.2
in [2H]O[2H] | -4.95
in c1ccccc1 | -3.97

C1CCCCCC1
Conditions | solvation free energy, 298 K [kcal/mol]
in CC(C)O | -4.24
in CCCCCCCCCCCCCCCC | -4.83
in CCCO | -4.27
in CN1CCCC1=O | -3.99
in CN(C)C=O | -3.79
in CS(C)=O | -3.1
in N#CCCCCC#N | -3.34
in NCCO | -2.41
in O | 0.79
in O=Cc1ccco1 | -3.85
in OCc1ccco1 | -3.74

N#Cc1cccc(O)c1
Conditions | solvation free energy, 298 K [kcal/mol]
in O | -9.65

O=C(c1ccccc1)N(O)c1cccc(Cl)c1
Conditions | solvation free energy, 298 K [kcal/mol]
in O | -10.9

Cc1cc(C)cc(O)c1
Conditions | solvation free energy, 298 K [kcal/mol]
in CC(C)CC(C)(C)C | -6.48
in CCCCCC | -6.77
in CCCCCCC | -6.71
in CCCCCCCC | -6.69
in O | -6.28

CCCCN(CCCC)CCCC
Conditions | solvation free energy, 298 K [kcal/mol]
in O | -4.09

O=Cc1ccccc1O
Conditions | solvation free energy, 298 K [kcal/mol]
in O | -4.71

c1ccc2c(c1)Cc1ccccc1O2
Conditions | solvation free energy, 298 K [kcal/mol]
in C1CCOC1 | -10.9
in C1COCCO1 | -10.8
in CC(C)(C)O | -9.25
in CC(C)CC(C)(C)C | -9.39
in CC(C)CC(C)O | -9.34
in CC(C)CCO | -9.39
in CC(C)CO | -9.24
in CC(C)O | -9.22
in CC(C)OC(C)C | -9.95
in CCC(C)(C)O | -9.49
in CCC(C)O | -9.33
in CCCC(C)CO | -9.42
in CCCC(C)O | -9.43
in CCCCCC | -9.63
in CCCCCCC | -9.67
in CCCCCCCC | -9.68
in CCCCCCCCCC | -9.67
in CCCCCCCCCCO | -9.67
in CCCCCCCCO | -9.67
in CCCCCCCO | -9.66
in CCCCCCO | -9.63
in CCCCCO | -9.57
in CCCCO | -9.53
in CCCCOCCCC | -10.1
in CCCO | -9.41
in CCO | -9.19
in CCOCC | -10.5
in CO | -9.2
in COC(C)(C)C | -10.3
in ClC(Cl)(Cl)Cl | -10.8
in ClCCCl | -10.8

FC(Cl)(Cl)C(F)(Cl)Cl
Conditions | solvation free energy, 298 K [kcal/mol]
in C1CCOC1 | -4.82
in C1COCCO1 | -4.46
in CC(C)=O | -4.45
in CCCCCC | -4.43
in CCCCCCC | -3.98
in CCCO | -3.64
in CCOC(C)=O | -4.62
in COC(C)(C)C | -4.68
in O | 0.87

CC1=CCC(C(C)C)c2cc(C)ccc21 (configuration not stated)
Conditions | solvation free energy, 298 K [kcal/mol]
in O | -1.12

COc1cccc(OC)c1O
Conditions | solvation free energy, 298 K [kcal/mol]
in O | -6.96

COC(C)=O
Conditions | solvation free energy, 298 K [kcal/mol]
in C=CCCCCCCC=C | -3.23
in CC(=O)N(C)C | -3.82
in CC(C)=O | -4.12
in CC(C)CCCC(C)CCCC(C)CCCCC(C)CCCC(C)CCCC(C)C | -2.53
in CC(C)O | -3.36
in CCC1CO1 | -4.01
in CCCCC(CC)COC(=O)CCCCC(=O)OCC(CC)CCCC | -3.19
in CCCCCC | -2.93
in CCCCCCC | -2.78
in CCCCCCCC | -2.88
in CCCCCCCCC=CCCCCCCCC(=O)OCC(COC(=O)CCCCCCCC=CCCCCCCCC)OC(=O)CCCCCCCC=CCCCCCCCC | -3.22
in CCCCCCCCCC | -2.8
in CCCCCCCCCCCCCCCC | -2.63
in CCCCCCCCO | -3.15
in CCCCN(C=O)CCCC | -3.48
in CCOC(=O)c1ccccc1C(=O)OCC | -3.48
in CCOCCO | -3.69
in CCOP(=O)(OCC)OCC | -3.75
in CN1CCCC1=O | -3.72
in CN1CCCCC1=O | -3.72
in CN1CCN(C)C1=O | -3.55
in CN(C)C=O | -3.9
in CNC(C)=O | -3.62
in CO | -3.96
in COP(=O)(OC)OC | -3.94
in CS(C)=O | -3.53
in NC=O | -3.27
in O | -3.14
in O=CN1CCOCC1 | -3.58
in OCCOCCO | -3.32
in [2H]O[2H] | -3.17
in c1ccc2ncccc2c1 | -3.51

CCN(CC)c1c([N+](=O)[O-])cc(C(F)(F)F)c(N)c1[N+](=O)[O-]
Conditions | solvation free energy, 298 K [kcal/mol]
in O | -5.66

C=CC(C)(C)O
Conditions | solvation free energy, 298 K [kcal/mol]
in O | -4.19

COc1ccc(O)cc1
Conditions | solvation free energy, 298 K [kcal/mol]
in CCCCCC | -7.15

Oc1cccc(Cl)c1
Conditions | solvation free energy, 298 K [kcal/mol]
in CCCCCC | -6.52
in CCCCCCC | -6.51
in CCCCCCCC | -6.48
in CCCCCCCCCC | -6.48
in Cc1ccc(C)cc1 | -7.97
in Cc1cccc(C)c1 | -8.05
in Cc1ccccc1C | -8.07
in O | -6.62

CCCCCCCCOC(=O)c1ccccc1C(=O)OCCCCCCCC
Conditions | solvation free energy, 298 K [kcal/mol]
in O | -6.68

O=C(O)c1cccc(C(=O)O)c1
Conditions | solvation free energy, 298 K [kcal/mol]
in CC(C)O | -13.8
in CCC(C)O | -13.3
in CCCCCCO | -13.2
in CCCCO | -13.5
in CCCO | -13.6
in CCCOC(C)=O | -12.5
in CN1CCCC1=O | -15.5
in CO | -14.1
in O | -11.3

CN(C)CCc1ccc(O)cc1
Conditions | solvation free energy, 298 K [kcal/mol]
in C=CCCCCCCC=C | -10.1
in O | -11.3

C1CNC1
Conditions | solvation free energy, 298 K [kcal/mol]
in O | -5.56

C=CCCC
Conditions | solvation free energy, 298 K [kcal/mol]
in C=CCCCCCCCCCCCCCC | -2.77
in CC#N | -2.5
in CC(=O)N(C)C | -2.35
in CCC#N | -2.86
in CCC(C)=O | -2.88
in CCCC#N | -2.56
in CCCCC(CC)COC(=O)CCCCC(=O)OCC(CC)CCCC | -2.66
in CCCCCCC | -3.15
in CCCCCCCC | -3.1
in CCCCCCCCO | -2.63
in CCCCO | -2.65
in CCCCOC(=O)c1ccccc1C(=O)OCCCC | -2.7
in CCN1CCCC1=O | -2.46
in CCN(CC)C(C)=O | -2.62
in CCNC(C)=O | -2.46
in CCNC=O | -2.26
in CCOC(=O)c1ccccc1C(=O)OCC | -2.33
in CCOC(C)=O | -2.96
in CN1CCCC1=O | -2.25
in CN1CCCCC1=O | -2.41
in CN(C)C=O | -2.32
in CNC(C)=O | -2.22
in CNC=O | -1.98
in COC(C)=O | -2.88
in Cc1ccc(C)cc1 | -3.11
in ClCCCl | -2.86
in Clc1ccccc1 | -3.01
in N#Cc1ccccc1 | -2.61
in O | 1.68
in O=C1CCCCC1 | -2.77
in O=C1CCCO1 | -1.95
in O=CN1CCOCC1 | -1.84
in OCCOCCO | -1.23

O=Cc1cccnc1
Conditions | solvation free energy, 298 K [kcal/mol]
in O | -7.1

OCCO
Conditions | solvation free energy, 298 K [kcal/mol]
in O | -9.3
